[1] abbreviates: other bond, Fmoc removal, intramolecular imine, N-methylmaleimide 1,3-dipolar cycloaddition, resin, 4 steps.
The mark [2] stands for this setting: the molecule shown is the open-chain precursor, other bond, 31-membered ring, CH(OMe)3/Et3N, then 6/LiBr/Et3N, DMF, THF, resin, 25.0 °C, with chain assembly.
Setting [3] is: the molecule shown is the open-chain precursor, other bond, 34-membered ring, CH(OMe)3/Et3N, then 6/LiBr/Et3N, DMF, THF, resin, 25.0 °C, with chain assembly.
The mark [4] stands for this setting: other bond, N-methylmaleimide (RP-04; imine cyclization/1,3-dipolar cycloaddition), resin, 4 steps.
The mark [5] stands for this setting: other bond, Fmoc removal (RP-03), imine cyclization/N-phenylmaleimide 1,3-dipolar cycloaddition (RP-04), resin, 3 steps.
The mark [6] stands for this setting: other bond, imine formation, then N-phenylmaleimide cycloaddition (RP-04), resin, with chain assembly.
[7] abbreviates: the molecule shown is the open-chain precursor, other bond, 31-membered ring, CH(OMe)3/Et3N, then 7/LiBr/Et3N, DMF, THF, resin, 25.0 °C, with chain assembly.
Where [8] appears, read: other bond, Fmoc removal (RP-03), imine cyclization/N-methylmaleimide 1,3-dipolar cycloaddition (RP-04), resin, 3 steps.
Where [9] appears, read: the molecule shown is the open-chain precursor, other bond, 37-membered ring, CH(OMe)3/Et3N, then 6/LiBr/Et3N, DMF, THF, resin, 25.0 °C, with chain assembly.
Setting [10] is: other bond, Fmoc removal, intramolecular imine, N-phenylmaleimide 1,3-dipolar cycloaddition, resin, 4 steps.

Several values for one entry are separate records, joined by “and”; a condition that tells them apart may be missing. Equal entries are not always repeated. Where two headings read alike, the source gives them in different places.

For [N-Me-fused-di-pyrrolidine-FDINNNK]G, the ring closure, yield after HPLC under setting [1] amounted to 2%.

Under setting [2], “H-Gly-MePhe-Arg-Phe-Phe-Asn-Lys(4-formylbenzoyl)-Tyr-resin?” yielded a ring closure, yield after HPLC of 3%.

Turning to “[4-OMePh-pyrrolidinyl-spirooxindole-NMeFDINNNK]G”, the ring closure, yield after HPLC (other bond, Fmoc removal (RP-03), imine cyclization/1,3-dipolar cycloaddition, (E)-4-methoxybenzylidene-indolin-2-one (RP-04), resin, 4 steps) amounted to 3%.

In the case of “H-Gly-Phe-Asp-Ile-Asn-Asn-Asn-Lys(4-formylbenzoyl)-Gly-resin?”, the ring closure, yield after HPLC under setting [3] was found to be 2%.

Consider [N-Me-fused-di-pyrrolidine-NMeFGLGFK]F, for which the ring closure, yield after HPLC under setting [4] came out at 5%.

In turn, [N-Ph-fused-di-pyrrolidine-NMeFRANK]G registered a ring closure, yield after HPLC under setting [5] of 3%.

“[N-Me-fused-di-pyrrolidine-NMeFDINNNVK]G” displayed a ring closure, yield after HPLC under setting [1] of 5%.

On to “[N-Ph-fused-di-pyrrolidine-NMeFRffK]Y, O2”, for which the ring closure, yield after HPLC under setting [6] stood at 2%.

Consider “[N-Me-fused-di-pyrrolidine-NMeFDINNNOrn]G”, for which, under “other bond, 33-membered ring, imine formation, then N-methylmaleimide cycloaddition (RP-04), resin, with chain assembly”, the ring closure, yield after HPLC was found to be 13%.

Turning to “[N-Me-fused-di-pyrrolidine-NMeFRffNAFK]G”, the ring closure, yield after HPLC (other bond, Fmoc removal (RP-03), imine cyclization/1,3-dipolar cycloaddition, N-methylmaleimide (RP-04), resin, 4 steps) was 4%.

“H-Gly-MePhe-Asp-Ile-Asn-Asn-Asn-Lys(4-formylbenzoyl)-Gly-resin” registered a ring closure, yield after HPLC (the molecule shown is the open-chain precursor, other bond, 34-membered ring, CH(OMe)3/Et3N, then 12/LiBr/Et3N, DMF, THF, resin, 25.0 °C, with chain assembly) of 3%.

As for “[N-Me-fused-di-pyrrolidine-NMeFRffK]Y, O1”, the ring closure, yield after HPLC (other bond, imine formation, then N-methylmaleimide cycloaddition (RP-04), resin, 4 steps) is 6% and 7%.

In turn, “H-Gly-MePhe-Arg-dPhe-dPhe-Asn-Lys(4-formylbenzoyl)-Gly-resin?” displayed a ring closure, yield after HPLC under setting [2] of 2%; a ring closure, yield after HPLC under setting [7] of 1%; a ring closure, yield after HPLC (the molecule shown is the open-chain precursor, other bond, 31-membered ring, CH(OMe)3/Et3N, then 8/LiBr/Et3N, DMF, THF, resin, 25.0 °C, with chain assembly) of 4%.

With “H-Gly-MePhe-Asp-Ile-Asn-Asn-Asn-Lys(4-formylbenzoyl)-Gly-resin?”, where the note is “the molecule shown is the open-chain precursor, other bond, 34-membered ring, imine formation, then 5-benzylidene-1,3-dimethylbarbiturate (14) cycloaddition (RP-04), resin, 4 steps”, the ring closure, yield after HPLC amounted to 11%.

Take [N-Ph-fused-di-pyrrolidine-NMeFRffNK]Y: the ring closure, yield after HPLC (amide bond, 31-membered ring, resin, 3 steps) amounted to 2%.

For the substance “H-Gly-dMePhe-Asp-Ile-Asn-Asn-Asn-Lys(4-formylbenzoyl)-Gly-resin”, the ring closure, yield after HPLC under setting [3] is 5%.

“H-Gly-Pro-Asp-Ile-Asn-Asn-Asn-Lys(4-formylbenzoyl)-Gly-resin?” registered a ring closure, yield after HPLC under setting [3] of 3%.

In the case of “[N-Ph-fused-di-pyrrolidine-NMeFALFPGFK]G, A2”, the ring closure, yield after HPLC (other bond, 37-membered ring, CH(OMe)3/Et3N, then 7/LiBr/Et3N, DMF, THF, resin, 25.0 °C, with chain assembly) is 10%.

Turning to “H-Gly-MePhe-Leu-Lys-Pro-Ile-Lys(4-formylbenzoyl)-Gly-resin?”, the ring closure, yield after HPLC reads like this: under setting [2], 8%; under setting [7], 5%; (the molecule shown is the open-chain precursor, other bond, 31-membered ring, CH(OMe)3/Et3N, then 13/LiBr/Et3N, DMF, THF, resin, 25.0 °C, with chain assembly) 4%.

Turning to [N-Me-fused-di-pyrrolidine-NMeFRANK]G, the ring closure, yield after HPLC under setting [8] came out at 14%.

Take “H-Gly-MePhe-Ala-His-Ala-Ser-Asn-Lys(4-formylbenzoyl)-Gly-resin?”: under setting [3], the ring closure, yield after HPLC amounted to 3%.

“H-Gly-MePhe-Glu-Glu-Lys-Asp-Ile-Asn-Asn-Asn-Val-Lys-Lys(4-formylbenzoyl)-Thr-resin?” returned a ring closure, yield after HPLC (the molecule shown is the open-chain precursor, other bond, 49-membered ring, CH(OMe)3/Et3N, then 6/LiBr/Et3N, DMF, THF, resin, 25.0 °C, with chain assembly) of 2%.

[N-Me-fused-di-pyrrolidine-NMeFINNNK]G came in with a ring closure, yield after HPLC under setting [1] of 3%.

Substance “[Ph-pyrrolidinyl-spirooxindole-NMeFRffNAK]G” registered a ring closure, yield after HPLC (other bond, (E)-3-benzylidene-indolin-2-one (RP-04; imine cyclization/1,3-dipolar cycloaddition), resin, 4 steps) of 5%.

Take “[N-Me-fused-di-pyrrolidine-NMeFDINNNDap]G”: where the note is “other bond, 31-membered ring, imine formation, then N-methylmaleimide cycloaddition (RP-04), resin, with chain assembly”, the ring closure, yield after HPLC stood at 4%.

Y[CRffNAFC]Y: the ring closure, yield after HPLC (disulfide bond, 26-membered ring, DMSO/AcOH, DMSO/AcOH/H2O, 1.55 mM, 25.0 °C, 3 steps) worked out at 17%.

Under setting [9], “H-Gly-MePhe-Asp-Ile-Asn-Asn-Asn-Val-Lys(4-formylbenzoyl)-Gly-resin?” came in with a ring closure, yield after HPLC of 5%.

For [N-Me-fused-di-pyrrolidine-NMeVDINNNK]G, the ring closure, yield after HPLC (other bond, 34-membered ring, imine formation, then N-methylmaleimide cycloaddition (RP-04), resin, 4 steps) was 27% and 12%.

Under setting [4], [N-Me-fused-di-pyrrolidine-NMeFAHASNK]G returned a ring closure, yield after HPLC of 3%.

“H-Gly-MePhe-Ile-Asn-Asn-Asn-Lys(4-formylbenzoyl)-Gly-resin?” registered a ring closure, yield after HPLC under setting [2] of 3%.

For “[N-3,4,5-OMePh-fused-di-pyrrolidine-NMeFRffNK]G”, the ring closure, yield after HPLC (other bond, Fmoc removal (RP-03), imine cyclization/N-(3,4,5-trimethoxyphenyl)maleimide 1,3-dipolar cycloaddition (RP-04), resin, 3 steps) is 2%.

Turning to “[N-Ph-fused-di-pyrrolidine-NMeFRFFK]G, N2”, the ring closure, yield after HPLC under setting [6] is 2% and 3%.

The substance [N-Me-fused-di-pyrrolidine-NMeFRFFNAK]Y displayed a ring closure, yield after HPLC under setting [4] of 3%.

In the case of “H-Gly-MePhe-Arg-Phe-Phe-Asn-Ala-Phe-Lys(4-formylbenzoyl)-Tyr-resin?”, the ring closure, yield after HPLC under setting [9] is 2%.

For the substance “H-Gly-MePhe-Arg-dPhe-dPhe-Asn-Ala-Phe-Lys(4-formylbenzoyl)-Tyr-resin?”, the ring closure, yield after HPLC by setting is: under setting [9], 2%; (the molecule shown is the open-chain precursor, other bond, 37-membered ring, CH(OMe)3/Et3N, then 11/LiBr/Et3N, DMF, THF, resin, 25.0 °C, with chain assembly) 1%.

Turning to “H-Gly-MePhe-Asn-Asn-Asn-Lys(4-formylbenzoyl)-Gly-resin?”, under “the molecule shown is the open-chain precursor, other bond, 28-membered ring, CH(OMe)3/Et3N, then 6/LiBr/Et3N, DMF, THF, resin, 25.0 °C, with chain assembly”, the ring closure, yield after HPLC worked out at 12%.

Substance [N-Me-fused-di-pyrrolidine-NMefDINNNK]G registered a ring closure, yield after HPLC under setting [1] of 5%.

“H-Gly-MePhe-Arg-dPhe-dPhe-Asn-Ala-Phe-Lys(4-formylbenzoyl)-Gly-resin?” yielded a ring closure, yield after HPLC under setting [9] of 4%.

Substance [N-Ph-fused-di-pyrrolidine-NMeFRffNK]G had a ring closure, yield after HPLC under setting [5] of 1%.

Consider “H-Gly-MePhe-Arg-Phe-Phe-Asn-Ala-Lys(4-formylbenzoyl)-Tyr-resin?”, for which the ring closure, yield after HPLC is 3% under setting [3] and 2% (the molecule shown is the open-chain precursor, other bond, 34-membered ring, CH(OMe)3/Et3N, then 7/LiBr/Et3N, DMF, THF, resin, 25.0 °C, with chain assembly).

Regarding “[N-Me-fused-di-pyrrolidine-NMeFEEKDINNNVKK]T”, the ring closure, yield after HPLC under setting [1] amounted to 2%.

With “[N-4-OMePh-fused-di-pyrrolidine-NMeFDINNNK]G”, the ring closure, yield after HPLC (other bond, Fmoc removal (RP-03), imine cyclization/1,3-dipolar cycloaddition, N-(4-methoxyphenyl)maleimide (RP-04), resin, 4 steps) was 20%.

With “[4-F-Ph-pyrrolidinyl-spirooxindole-NMeFDINNNK]G”, the ring closure, yield after HPLC (other bond, Fmoc removal (RP-03), imine cyclization/1,3-dipolar cycloaddition, (E)-4-fluorobenzylidene-indolin-2-one, Cu/BINAP (RP-04), resin, 4 steps) is 6%.

Regarding “[N-Me-fused-di-pyrrolidine-NMeFALFPGFK]G, A1”, the ring closure, yield after HPLC (other bond, 37-membered ring, CH(OMe)3/Et3N, then 6/LiBr/Et3N, DMF, THF, resin, 25.0 °C, 4 steps) is 22%.

The substance [N-Me-fused-di-pyrrolidine-NMeGDINNNK]G had a ring closure, yield after HPLC (other bond, 34-membered ring, imine formation, then N-methylmaleimide cycloaddition (RP-04), resin, with chain assembly) of 8%.

The substance “H-Gly-MePhe-Arg-dPhe-dPhe-Asn-Ala-Lys(4-formylbenzoyl)-Gly-resin?” had a ring closure, yield after HPLC (the molecule shown is the open-chain precursor, other bond, 34-membered ring, CH(OMe)3/Et3N, then 11/LiBr/Et3N, DMF, THF, resin, 25.0 °C, with chain assembly) of 5%.

Consider [N-Ph-fused-di-pyrrolidine-NMeVDINNNK]G, for which, under setting [10], the ring closure, yield after HPLC is 2% and 4%.

For “[N-Ph-fused-di-pyrrolidine-NMeFDINNNDap]G”, the ring closure, yield after HPLC under setting [10] came to 2%.

As to “H-Gly-MePhe-Arg-Phe-Phe-Asn-Ala-Phe-Lys(4-formylbenzoyl)-Gly-resin?”, the ring closure, yield after HPLC was 2% under setting [9] and 1% (the molecule shown is the open-chain precursor, other bond, 37-membered ring, CH(OMe)3/Et3N, then 7/LiBr/Et3N, DMF, THF, resin, 25.0 °C, with chain assembly).

For the substance [N-Ph-fused-di-pyrrolidine-NMeVINNNK]G, under “other bond, N-phenylmaleimide (RP-04; imine cyclization/1,3-dipolar cycloaddition), resin, 4 steps”, the ring closure, yield after HPLC was found to be 7%.

Substance “[N-Ph-fused-di-pyrrolidine-NMeFRFFK], N3” showed a ring closure, yield after HPLC under setting [6] of 2%.

Take [N-Me-fused-di-pyrrolidine-NMeFRffNK]G: the ring closure, yield after HPLC under setting [8] was found to be 3%.

Consider “[N-Me-fused-di-pyrrolidine-NMeFDINNNDab]G”, for which the ring closure, yield after HPLC (other bond, 32-membered ring, imine formation, then N-methylmaleimide cycloaddition (RP-04), resin, with chain assembly) worked out at 3%.

These data come from PMC7307906, “Macrocyclic Modalities Combining Peptide Epitopes and Natural Product Fragments” (Journal of the American Chemical Society, 2020).
